Results: US12172959B2, “Mono- or di-substituted indole derivatives as dengue viral replication inhibitors” (priority 2015, dated 2024)

Key:
[1] = tested on: Vero cells; conditions: African green monkey
[2] = tested on: DENV-2 16681 strain; experiment: DENV-2 antiviral assay (eGFP fluorescence, Vero cells); type: cell-based, Dengue virus; conditions: DENV-2 16681 eGFP, MOI 0.5, 3 days
Description: The antiviral activity of all the compounds of the invention was tested against the DENV-2 16681 strain which was labeled with enhanced green fluorescent protein (eGPF; Table 1). The culture medium consists of minimal essential medium supplemented with 2% of heat-inactivated fetal calf serum, 0.04% gentamycin (50 mg/mL) and 2 mM of L-glutamine. Vero cells, obtained from ECACC, were suspended in culture medium and 25 μL was added to 384-well plates (2500 cells/well), which already contain the antiviral compounds. Typically, these plates contain a 5-fold serial dilution of 9 dilution steps of the test compound at 200 times the final concentration in 100% DMSO (200 nL). […] Finally, each plate contains wells which are assigned as virus controls (containing cells and virus in the absence of compound), cell controls (containing cells in the absence of virus and compound) and medium controls (containing medium in the absence of cells, virus and compounds). To the wells assigned as medium control, 25 μL of culture medium was added instead of Vero cells. Once the cells were added to the plates, the plates were incubated for 30 minutes at room temperature to allow the cells to distribute evenly within the wells. Next, the plates were incubated in a fully humidified incubator (37° C., 5% CO2) until the next day. Then, DENV-2 strain 16681, labeled with eGFP, was added at a multiplicity of infection (MOI) of 0.5. Therefore, 15 μL of virus suspension was added to all the wells containing test compound and to the wells assigned as virus control. In parallel, 15 μL of culture medium was added to the medium and cell controls. Next, the plates were incubated for 3 days in a fully humidified incubator (37° C., 5% CO2). At the day of the read out, the eGFP fluorescence was measured using an automated fluorescence microscope at 488 nm (blue laser). Using an in-house LIMS system, inhibition dose response curves for each compound were calculated and the half maximal effective concentration (EC50) was determined. Therefore, the percent inhibition (I) for every test concentration is calculated using the following formula: I=100*(ST−SCC)/(SVC−SCC); ST, SCC and SVC are the amount of eGFP signal in the test compound, cell control and virus control wells, respectively. The EC50 represents the concentration of a compound at which the virus replication is inhibited with 50%, as measured by a 50% reduction of the eGFP fluorescent intensity compared to the virus control. The EC50 is calculated using linear interpolation.

[3] = tested on: DENV-3 strain H87; experiment: Tetravalent RT-qPCR assay Protocol A, serotype 3; type: cell-based; conditions: Dengue virus, DENV3, 72 h, RT-qPCR serotype 3 H87, Vero cells, day 3
Description: (§1) The antiviral activity of the compounds of the invention was tested against DENV-1 strain TC974#666 (NCPV; Table 6), DENV-2 strain 16681 (Table 7), DENV-3 strain H87 (NCPV; Table 8) and DENV-4 strains H241 (NCPV; Table 9A) and SG/06K2270DK1/2005 (Eden; Table 9B) in a RT-qPCR assay. Therefore, Vero cells were infected with either DENV-1, or -2, or -3, or -4 in the presence or absence of test compounds. At day 3 post-infection, the cells were lysed and cell lysates were used to prepare cDNA of both a viral target (the 3′UTR of DENV; Table 2) and a cellular reference gene (β-actin, Table 2). Subsequently, a duplex real time PCR was performed on a Lightcycler480 instrument. The generated Cp value is inversely proportional to the amount of RNA expression of these targets. Inhibition of DENV replication by test compound results in a shift of Cp's for the 3′UTR gene. On the other hand, if a test compound is toxic to the cells, a similar effect on β-actin expression will be observed. The comparative ΔΔCp method is used to calculate EC50, which is based on the relative gene expression of the target gene (3′UTR) normalized with the cellular housekeeping gene (β-actin).
(§2) The culture medium consisted of minimal essential medium supplemented with 2% of heat-inactivated fetal calf serum, 0.04% gentamycin (50 mg/mL) and 2 mM of L-glutamine. Vero cells, obtained from ECACC, were suspended in culture medium and 75 μL/well was added in 96-well plates (10000 cells/well), which already contain the antiviral compounds. […] In addition, each plate contains wells which are assigned as virus controls (containing cells and virus in the absence of compound) and cell controls (containing cells in the absence of virus and compound). Once the cells were added in the plates, the plates were incubated in a fully humidified incubator (37° C., 5% CO2) until the next day. Dengue viruses serotype-1, 2, 3 and 4 were diluted in order to obtain a Cp of ˜22-24 in the assay. Therefore, 25 μL of virus suspension was added to all the wells containing test compound and to the wells assigned as virus control. In parallel, 25 μL of culture medium was added to the cell controls. Next, the plates were incubated for 3 days in a fully humidified incubator (37° C., 5% CO2). After 3 days, the supernatant was removed from the wells and the cells were washed twice with ice-cold PBS (˜100 μL). The cell pellets within the 96-well plates were stored at −80° C. for at least 1 day. Next, RNA was extracted using the Cells-to-CT™ lysis kit, according to the manufacturer's guideline (Life Technologies). The cell lysates can be stored at −80° C. or immediately used in the reverse transcription step.
(§3) In preparation of the reverse transcription step, mix A (table 3A) was prepared and 7.57 μL/well was dispensed in a 96-well plate. After addition of 5 μL of the cell lysates, a five minute denaturation step at 75° C. was performed (table 3B). Afterwards, 7.43 μL of mix B was added (table 3C) and the reverse transcription step was initiated (table 3D) to generate cDNA.
(§4) Finally, a RT-qPCR mix was prepared, mix C (table 4A), and 22.02 μL/well was dispensed in 96-well LightCycler qPCR plates to which 3 μL of cDNA was added and the qPCR was performed according to the conditions in table 4B on a LightCycler 480.
(§5) Using the LightCycler software and an in-house LIMS system, dose response curves for each compound were calculated and the half maximal effective concentration (EC50) and the half maximal cytotoxic concentration (CC50) were determined.

[4] = tested on: DENV-2 strain 16681; experiment: Tetravalent RT-qPCR assay Protocol A, serotype 2; type: cell-based; conditions: Dengue virus, DENV2, 72 h; Protocol A, RT-qPCR serotype 2 16681, Vero cells, day 3; read-out: EC50
Description: as §1, §2, §3, §4, §5

[5] = tested on: DENV-1 strain TC974#666; experiment: Tetravalent RT-qPCR assay Protocol A, serotype 1; type: cell-based; conditions: Dengue virus, DENV1, 72 h, RT-qPCR serotype 1 TC974#666, Vero cells, day 3
Description: as §1, §2, §3, §4, §5

[6] = in vitro; type: cell-based; conditions: African green monkey, CC50
Description: as §1, §2, §5

[7] = tested on: DENV-4 strain H241; experiment: Tetravalent RT-qPCR assay Protocol A, serotype 4 H241; type: cell-based; conditions: Dengue virus, DENV4, 72 h; Protocol A, RT-qPCR serotype 4 H241, Vero cells, day 3; read-out: EC50
Description: as §1, §2, §3, §4, §5

| Structure (SMILES) | CC50 [1] [nM] | EC50 [2] [nM] | further results |
| --- | --- | --- | --- |
| COc1cc(NC(C(=O)c2c[nH]c3cc(F)ccc23)c2ccc(Cl)cc2OC)cc(S(C)(=O)=O)c1 (racemic) [Compound 1, 2-(4-chloro-2-methoxyphenyl)-1-(6-fluoro-1H-indol-3-yl)-2-((3-methoxy-5-(methylsulfonyl)phenyl)amino)ethanone] | 5500 | – | EC50 ([2]; Dengue virus, DENV2, Vero, 72 h): 0.52 nM |
| COc1cc(NC(C(=O)c2c[nH]c3cc(F)ccc23)c2ccc(Cl)cc2OC)cc(S(C)(=O)=O)c1 (single isomer, unassigned) [Compound 1B, 2-(4-chloro-2-methoxyphenyl)-1-(6-fluoro-1H-indol-3-yl)-2-((3-methoxy-5-(methylsulfonyl)phenyl)amino)ethanone] | 6500 | 12 | – |
| COc1cc(NC(C(=O)c2c[nH]c3c(C)c(F)ccc23)c2ccc(Cl)cc2OC)cc(S(C)(=O)=O)c1 (single isomer, unassigned) [Compound 2B, 2-(4-chloro-2-methoxyphenyl)-1-(6-fluoro-7-methyl-1H-indol-3-yl)-2-((3-methoxy-5-(methylsulfonyl)phenyl)amino)ethanone] | 7400 | 26 | – |
| COc1cc(NC(C(=O)c2c[nH]c3cc(OC)ccc23)c2ccc(Cl)cc2OC)cc(S(C)(=O)=O)c1 (single isomer, unassigned) [Compound 3B, 2-(4-chloro-2-methoxyphenyl)-1-(6-methoxy-1H-indol-3-yl)-2-((3-methoxy-5-(methylsulfonyl)phenyl)amino)ethanone] | > 9700 | 3.8 | – |
| COc1cc(NC(C(=O)c2c[nH]c3cc(OC)c(C)cc23)c2ccc(Cl)cc2OC)cc(S(C)(=O)=O)c1 (single isomer, unassigned) [Compound 4B, 2-(4-chloro-2-methoxyphenyl)-2-((3-methoxy-5-(methyl-sulfonyl)phenyl)amino)-1-(6-methoxy-5-methyl-1H-indol-3-yl)ethanone] | 12000 | 36 | – |
| COc1cc(NC(C(=O)c2c[nH]c3cc(OC)c(F)cc23)c2ccc(Cl)cc2OC)cc(S(C)(=O)=O)c1 (single isomer, unassigned) [Compound 5B, 2-(4-chloro-2-methoxyphenyl)-1-(5-fluoro-6-methoxy-1H-indol-3-yl)-2-((3-methoxy-5-(methylsulfonyl)phenyl)amino)ethanone] | 13000 | 68 | – |
| COc1cc(NC(C(=O)c2c[nH]c3c(C)c(OC)ccc23)c2ccc(Cl)cc2OC)cc(S(C)(=O)=O)c1 (single isomer, unassigned) [Compound 6B, 2-(4-chloro-2-methoxyphenyl)-2-((3-methoxy-5-(methyl-sulfonyl)phenyl)amino)-1-(6-methoxy-7-methyl-1H-indol-3-yl)ethanone] | 11000 | 19 | – |
| COc1cc(NC(C(=O)c2c[nH]c3cc(F)c(C)cc23)c2ccc(Cl)cc2OC)cc(S(C)(=O)=O)c1 (single isomer, unassigned) [Compound 7A, 2-(4-chloro-2-methoxyphenyl)-1-(6-fluoro-5-methyl-1H-indol-3-yl)-2-((3-methoxy-5-(methylsulfonyl)phenyl)amino)ethanone] | 6800 | 13 | – |
| COc1cc(NC(C(=O)c2c[nH]c3cc(F)c(C)cc23)c2ccc(Cl)cc2OC)cc(S(C)(=O)=O)c1 (single isomer, unassigned) [Compound 7B, 2-(4-chloro-2-methoxyphenyl)-1-(6-fluoro-5-methyl-1H-indol-3-yl)-2-((3-methoxy-5-(methylsulfonyl)phenyl)amino)ethanone] | 3200 | 0.2 | EC50 [3]: 7.8 nM; EC50 [4]: 0.17 nM; EC50 [5]: 0.4 nM; CC50 at 3 days [6]: 2200 nM; EC50 [7]: 44 nM |
| COc1cc(NC(C(=O)c2c[nH]c3ccc(C(F)(F)F)cc23)c2ccc(Cl)cc2OC)cc(S(C)(=O)=O)c1 (single isomer, unassigned) [Compound 8A, 2-(4-chloro-2-methoxyphenyl)-2-((3-methoxy-5-(methyl-sulfonyl)phenyl)amino)-1-(5-(trifluoromethyl)-1H-indol-3-yl)ethanone] | 7400 | 3 | – |
| COc1cc(NC(C(=O)c2c[nH]c3ccc(OC(F)(F)F)cc23)c2ccc(Cl)cc2OC)cc(S(C)(=O)=O)c1 (single isomer, unassigned) [Compound 9B, 2-(4-chloro-2-methoxyphenyl)-2-((3-methoxy-5-(methyl-sulfonyl)phenyl)amino)-1-(5-(trifluoromethoxy)-1H-indol-3-yl)ethanone] | 6200 | 3.8 | – |
| COc1cc(NC(C(=O)c2c[nH]c3cc(OC)c(OC(F)(F)F)cc23)c2ccc(Cl)cc2OC)cc(S(C)(=O)=O)c1 (single isomer, unassigned) [Compound 10B, 2-(4-chloro-2-methoxyphenyl)-2-((3-methoxy-5-(methylsulfonyl)phenyl)amino)-1-(6-methoxy-5-(trifluoromethoxy)-1H-indol-3-yl)ethanone] | 9800 | 3.9 | – |
| COc1cc(NC(C(=O)c2c[nH]c3c(C)cc(OC(F)(F)F)cc23)c2ccc(Cl)cc2OC)cc(S(C)(=O)=O)c1 (single isomer, unassigned) [Compound 11B, 2-(4-chloro-2-methoxyphenyl)-2-((3-methoxy-5-(methylsulfonyl)phenyl)amino)-1-(7-methyl-5-(trifluoromethoxy)-1H-indol-3-yl)ethanone] | 9200 | 4.1 | – |
